Measurements taken from patent US8465778B2, “Method of making tyrosine kinase microspheres” (Allergan, Inc., priority 2004, dated 2013).
In brackets after ≈: the same amount, converted by molar mass. Like-named read-outs stand apart in the source and are kept apart here.

Assays:
in vivo = details: female, albino, rabbit
[1] = In vitro TKI release from PLGA/PLA implants (Example 2); format: physicochemical; details: for period of in-vitro release from implants: implants in release medium, 37° C.
Procedure: TKI release from the implants was assessed in vitro. Implants were placed into vials containing release medium and shaken at 37° C. At the appropriate time points a sample was taken from the release medium for analysis and the medium totally replaced to maintain sink conditions. Drug in the sample was assayed by HPLC and the cumulative percent release of drug from the implant noted as a function of time. The in vitro release profiles of AGN 200954, AGN 202314, AGN 201635 and AGN 202564 are depicted in FIGS. 3 through 10, respectively.

[2] = Physicochemical properties of the TKIs (solubility, log P, log D, pKa; Tables 2, 11, 13); details: for logP: n-octanol/water, Table 2; for solubility: pH 7, aqueous buffer
Procedure: Tyrosine kinase inhibitors were incorporated into PLGA or PLA implants by extrusion. The TKIs were milled with the polymers at certain ratios then extruded into filaments. These filaments were subsequently cut into implants weighing approximately 1 mg. Several TKIs were formulated in the PLGA and PLA implants based on their potencies and physicochemical properties as shown in Table 2.
We developed a new (oil in water) process for making active agent microspheres (FIG. 23). This new process for making microspheres can be used with any small molecule which is slightly soluble in water and organic solvents and which is able to preferentially crystallize in organic solvents. Such small molecules include those which have a Log P greater than or equal to four. P, the partition coefficient, is defined as the ratio of the equilibrium concentration (Ci) of a dissolved substance in a two-phase system consisting of two largely immiscible solvents, for example the ratio of n-octanol (Co) to water (Cw).
Using our new process, each of the five different TKIs shown by FIG. 24 were separately incorporated into PLGA biodegradable microspheres. In FIG. 24 the five TKIs shown are identified as follows: first (uppermost) row: 206639 and 205558; second (middle) row: 206320 and 206316, and; bottom row: 206784. The properties of these five TKIs are set forth in Table 13, where “DSC” means differential scanning calorimetry and endotherms are noted in degrees Celsius (used to determine presence of TKI crystals).

[3] = Intravitreal pharmacokinetics of TKIs in fluid compositions after a single intravitreal injection; details: female, albino, rabbit, vitreous humor, other: intravitreal injection
[4] = Stability of TKI in Formulations 3 and 4 in media of pH 6.0, 7.4 or 8.5; format: physicochemical
Procedure: To examine the stability of TKI in formulation, Formulations 3 and 4 were prepared to various concentration in a medium of pH 6.0, 7.4 or 8.5, respectively, and subjected to an incubation condition of either 7 days under ambient condition or 14 days at 4° C., and the results are summarized in the following table.

[5] = In vitro release of AGN 201634 from PDLG/PDL implants in different media; format: physicochemical
Procedure: TKI release was examined for implants made from poly (D,L-lactide-co-glycolide) (PDLG) or poly (D,L-lactide) (PDL) in different media with or without addition of detergent at 37° C. in a shaking water bath.
TKI release was examined in various medium, including saline, phosphate buffer saline of pH 7.4, 50 mM bicarbonate buffer of pH 6.0±0.1 with 0.1% cetyltrimethylammonium bromide (CTAB), and 50 mM borate buffer of pH 8.5±0.1 with 0.5% sodium dodecyl sulfate (SDS) in a shaking water bath (Precision) at 37° C. Sample was incubated in 10 mL of medium, and was totally replaced with fresh medium at each sampling time. Drug concentration was determined by HPLC using a Waters 2690 Separation Module equipped with a Waters XTerra RP8 column (3.9×150 mm, 5 μm, equilibrated at ambient) and a Waters 996 photodiode array detector (set at 238 nm) using 0.1% acetic acid in acetonitrile/water (40/60 by volume) as the mobile phase under a flow rate of 1.2 mL/min. The column was equilibrated with mobile phase for at least 30 min before initiating any sample injection.
The DDS was incubated in a vial of either 40 or 20 mL, and 10 mL sample solution was replaced by same volume of fresh medium, respectively, at each sampling time. The release profiles in saline and PBS were obviously different. Less than 5% of TKI was released in saline during the first 70 days. In contrast, less than 5% of AGN 201634 was released at the first 3 weeks when DDS was incubated in PBS, the same as in saline, but more than 80% of AGN 201634 was released after 70 days. […] It seems that release medium plans an important role in the variation of release profile instead of incubation volume. Due to this slow and diverged release profile, the release profile of Formulation 2 was not performed since its formulation was based on the same polymer with a lower drug loading.
For F3, more than 50%, 45%, and 75% TKI was released at the first 3, 7, and 2 weeks, when DDS was incubated in a medium of pH 6.0 (with 0.1% CTAB), 7.4 (PBS) and 8.5 (with 0.5% SDS), respectively. […]

[6] = Stability of AGN 201634 standard solution in DI water/acetonitrile at 4° C.; format: physicochemical; details: DI water/acetonitrile (75%/25%) at 4° C.
Procedure: The stability of AGN 201634 standard solution in deionized water/acetonitrile (75%/25%) was examined at 4° C., and the results are summarized in the following table. The concentration of standard solution was from 0.0695 μg/mL to 8.693 μg/mL, and was analyzed on day 14, 21, and 35.
Stability of AGN 201634 standard solution of various concentrations in DI water/acetonitrile (75%/25%) at 4° C. (Table 9).

[7] = In vivo pharmacokinetics of AGN 202314 intravitreal PLGA implants; set-up: species or system rabbit
Procedure: Implants containing AGN 202314 were placed intravitreally or subconjunctivally in an eye. The implants released AGN 202314 in-vitro over a 14 day period (FIG. 3.). The intent of this study was to achieve an intravitreal in-vivo/in-vitro correlation with the intravitreal implants and assess the feasibility of periocular delivery.
Intravitreal Implants, PLGA (400 μg AGN 202314 dose, 1 mg total implant weight), were implanted by surgical incision into the mid vitreous of albino rabbits. At days 8, 15, 31 and 61 rabbits were sacrificed and the vitreous humor, lens, aqueous humor and plasma assayed for AGN 202314.

[8] = In vivo pharmacokinetics of AGN 202314 subconjunctival PLGA implants and PLA microspheres; details: rabbit; for concentration at 8 day: Day 8
Procedure: Subconjunctival implants, PLGA (1200 μg AGN 202314 dose; three implants) and PLA microspheres (300 μg AGN 202314) were implanted subconjunctivally. At days 8, 15, 31 and 61 rabbits were sacrificed and the vitreous humor, lens, aqueous humor and plasma assayed for AGN 202314.

[9] = Day 31, subconjunctival PLGA implants, 3 rods, total 1.2 mg AGN 202314
[10] = Day 61, subconjunctival PLGA implants, 3 rods, total 1.2 mg AGN 202314

SMILES: O=C1Nc2ccccc2C1=CNc1ccc(N2CCOCC2)cc1 [AGN 199659, 3-[(4-Morpholin-4-yl-phenylamino)-methylene]-1,3-dihydro-indol-2-one]
- Vd (in vivo): 0.000255 L
- clearance (in vivo): 0.00387 mL/min
- half-life (in vivo): 1.21 h

SMILES: Nc1ccc2c(c1)C(=C1C(=O)Nc3ccc(Cl)cc31)OC2 [AGN 200954, 3-(6-Amino-3H-isobenzofuran-1-ylidene)-5-chloro-1,3-dihydro-indol-2-one]
- period of in-vitro release from implants [1]: 180 days
- logP [2]: 2.21
- solubility [2]: 0.3 µg/mL (≈ 1 µM)
- Vd [3]: 0.000705 L
- half-life [3]: 2.59 h
- clearance (in vivo): 0.00433 mL/min

SMILES: O=C(O)CC1O/C(=C2/C(=O)Nc3cc(F)ccc32)c2ccccc21 (centres unmarked) [AGN 201634]
- stability of DDS solution in various pH medium ([4]; 4° C.): > 14 days
- stability of DDS solution in various pH medium ([4]; ambient condition): more than 7 days
- duration of controlled release in vitro ([5]; medium of pH 6.0): more than 5 months
- duration of controlled release in vitro ([5]; medium of pH 7.4): more than 5 months
- duration of controlled release in vitro ([5]; medium of pH 8.5): more than 4 weeks
- stability of solution [6]: more than 35 days
- logP [2]: 1.25
- solubility [2]: 88 µg/mL (≈ 271 µM)

SMILES: CCN(CC)CCOc1ccc(NC=C2C(=O)Nc3cc(F)ccc32)cc1 [AGN 202314]
- plasma levels ([7]; all time points (days 8, 15, 31, 61), implants in rabbit eye): BLQ or extremely low
- period of drug release in vivo ([7]; intravitreal PLGA implant, albino rabbit): two
- period of in-vitro delivery from formulations ([1]; 1 mg Purac PLA implants): four
- period of drug release in vitro ([1]; AGN 202314 implant): two
- period of in-vitro release from implants [1]: 14 days
- Retina AGN 202314 concentration ([8]; Day 15, subconjunctival PLGA implants, 3 rods, total 1.2 mg AGN 202314): BLQ (BLQ: Retina and lens: <5 ng/g)
- Lens AGN 202314 concentration [8, 9]: BLQ (BLQ: Retina and lens: <5 ng/g)
- Retina AGN 202314 concentration [8, 9]: BLQ (BLQ: Retina and lens: <5 ng/g)
- Lens AGN 202314 concentration [8, 10]: BLQ (BLQ: Retina and lens: <5 ng/g)
- Retina AGN 202314 concentration [8, 10]: BLQ (BLQ: Retina and lens: <5 ng/g)
- concentration at 8 day ([8]; aqueous humor, other: subconjunctival implant, subconjunctival PLGA implants, 3 rods, total 1.2 mg AGN 202314, read-out: Aqueous Humor AGN 202314 concentration): 6.38 ng/mL
- concentration at 8 day ([8]; lens, other: subconjunctival implant, subconjunctival PLGA implants, 3 rods, total 1.2 mg AGN 202314, read-out: Lens AGN 202314 concentration): 229 ng/g
- concentration at 15 day ([8]; lens, other: subconjunctival implant, Day 15, subconjunctival PLGA implants, 3 rods, total 1.2 mg AGN 202314): 7.93 ng/g
- concentration at 8 day ([8]; retina, other: subconjunctival implant, subconjunctival PLGA implants, 3 rods, total 1.2 mg AGN 202314, read-out: Retina AGN 202314 concentration): 63.8 ng/g
- periocular delivery to the vitreous and retina ([8]; subconjunctival implants and microspheres): unsuccessful
- pKa [2]: 9.68
- logP [2]: 3.8
- solubility [2]: 202 µg/mL (≈ 547 µM)

SMILES: Cc1cccc2c1C(=CNc1ccc(CCN3CCCCC3)cc1)C(=O)N2 [AGN 202560]
- pKa [2]: 9.65
- logP [2]: 3.66
- solubility [2]: 41 µg/mL (≈ 113 µM)
